Test results published in patent publication US20260324697A1, “MATERIALS AND METHODS FOR MASKING BITTERNESS” (UNIVERSITY OF FLORIDA RESEARCH FOUNDATION, INCORPORATED, priority 2023, published 2026).
Structures can show the parent of a compound that is named as a salt.

Experiments:
Assay type in all cases: in vivo, persons (trained panelists)
[1] = Sensory panel testing of bitterness reduction of 6 ppm quinine solutions; details: for Panel Score (0-15), bitterness: 0: no bitterness, 15: very bitter
Source text: (§1) Sensory testing was used to identify extracts that provide bitterness reduction and to evaluate the degree of bitterness reduction provided by specific compounds. In general, bitterness sensory testing involved providing test solutions to trained panelists who rated the perceived bitterness of test solutions. Panels consisted of three persons who can taste phenylthiocarbamide (PTC) test paper, and panelists were selected based on their ability to discriminate differences in the concentrations of bitterness. Panelists swirled an aliquot of a solution in the mouth for 15 seconds, spit out the test solution, and rated the perceived bitterness intensity of the solution on a scale of 0 to 15 (0: no bitterness, 15: very bitter). Panelists drank water after each test solution evaluation to remove the bitterness before evaluating the next solution.
(§2) Panel testing results can be used to quantify perceived changes in bitterness. The change in perceived bitterness of an ingestible composition following addition of a bitter-masking agent is defined herein as the percent change in the bitterness panel test rating of a composition to which a bitter-masking agent has been added compared to the bitterness panel test rating of the otherwise identical composition without the bitter-masking agent. For instance, if a composition is given a bitterness intensity rating of 8, and the same composition with addition of an amount of bitter-masking agent is given a bitterness intensity rating of 6, then the bitter-masking agent has provided a perceived change in bitterness of 25%.
Compound 1 was evaluated by sensory panel testing. A solution of 6 ppm quinine monohydrochloride dihydrate in distilled water was used as a control solution having high bitterness, and Compound 1 was added to aliquots of the control solution to provide test solutions containing 6 ppm quinine and 25, 50, or 100 ppm of Compound 1.
Compounds 2-5 were also evaluated by sensory panel testing in the same manner as Compound 1.
Sensory panel tests were also performed to evaluate whether crude extracts from allspice would be effective at reducing bitterness. Allspice was mixed with boiling water to obtain a crude aqueous mixture, and solvent was removed from the crude aqueous mixture using rotary evaporation to obtain a crude extract. The crude extract was used without further purification. An aqueous solution containing 6 ppm quinine was used as a bitterness control solution, and the crude extract was added to aliquots of the control solution to provide test solutions containing 6 ppm quinine and 100 ppm or 1000 ppm of the crude extract. The three solutions were evaluated by a sensory panel as described above.

[2] = Sensory panel testing of bitterness reduction of 500 ppm caffeine solutions; details: for Panel Score (0-15), bitterness: 0: no bitterness, 15: very bitter
Source text: as §1, §2
Compound 1 was evaluated by sensory panel testing for bitterness reduction of caffeine solutions. A solution of 500 ppm caffeine in distilled water was used as a control solution having high bitterness, and Compound 1 was added to aliquots of the control solution to provide test solutions containing 500 ppm caffeine and 25, 50, or 100 ppm of Compound 1.

[3] = Sensory panel testing of perceived sweetness of 6 ppm sucrose solutions; details: for Panel Score (0-15), sweetness: 0: no sweetness, 15: very sweet
Source text: Similar panel testing was done to evaluate perceived sweetness of test solutions. Panelists swirled an aliquot of test solution in the mouth for 15 seconds, spit out the test solution, and rated the perceived sweetness intensity of the test solution on a scale of 0 to 15 (0: no sweetness, 15: very sweet). Panelists drank water after each test solution evaluation before evaluating the next test solution.
Panel testing results can be used to quantify perceived changes in sweetness in an analogous manner. The change in perceived sweetness of an ingestible composition following addition of a bitter-masking agent or other agent is defined herein as the percent change in the sweetness panel test rating of a composition to which a bitter-masking agent or other agent has been added compared to the sweetness panel test rating of the otherwise identical composition without the bitter-masking agent or other agent. For instance, if a composition is given a sweetness intensity rating of 8, and the same composition with addition of an amount of bitter-masking agent or other agent is given a sweetness intensity rating of 6, then the bitter-masking agent or other agent has provided a perceived change in sweetness of 25%.
A similar panel test was performed to assess whether the efficacy of Compound 1 at masking bitterness is derived from imparting sweetness. A solution of 6 ppm sucrose in distilled water was used as a sweetness control solution, and Compound 1 was added to three aliquots of the sweetness control solution to provide test solutions containing 6 ppm sucrose and 25, 50, or 100 ppm of Compound 1. Panelists then evaluated the sweetness intensity of each test solution.

## COc1cc(C[C@@H](O)CO)ccc1O [Compound 1, (2R)-3-(4-hydroxy-3-methoxyphenyl) propane-1,2-diol]
[1]; 6 ppm quinine, 25, 50, or 100 ppm Compound 1
  perceived bitterness of quinine solutions: markedly reduced the perceived bitterness of quinine solutions
[1]; 25 ppm Compound 1 added to 6 ppm quinine
  Panel Score (0-15), bitterness: 5.0
[1]; 50 ppm Compound 1 added to 6 ppm quinine
  Panel Score (0-15), bitterness: 3.0
[1]; 100 ppm Compound 1 added to 6 ppm quinine
  Panel Score (0-15), bitterness: 0.8
[2]; 25 ppm Compound 1 added to 500 ppm caffeine
  Panel Score (0-15), bitterness: 3.5
[2]; 50 ppm Compound 1 added to 500 ppm caffeine
  Panel Score (0-15), bitterness: 4.0
[2]; 100 ppm Compound 1 added to 500 ppm caffeine
  Panel Score (0-15), bitterness: 3.8
[2]; 500 ppm caffeine, 25, 50, or 100 ppm Compound 1
  masking of the bitterness of caffeine solutions: did not significantly mask the bitterness of caffeine solutions
[3]; 6 ppm sucrose, 25, 50, or 100 ppm Compound 1
  contribution to perceived sweetness of the test solutions: did not contribute to perceived sweetness of the test solutions
[3]; 25 ppm Compound 1 added to 6 ppm sucrose
  Panel Score (0-15), sweetness: 7.2
[3]; 50 ppm Compound 1 added to 6 ppm sucrose
  Panel Score (0-15), sweetness: 6.8
[3]; 100 ppm Compound 1 added to 6 ppm sucrose
  Panel Score (0-15), sweetness: 7.2

## Cn1c(=O)c2c(ncn2C)n(C)c1=O [caffeine, reference compound]
[2]; 500 ppm caffeine alone (control)
  Panel Score (0-15), bitterness: 3.0

## C=C[C@H]1C[N@@]2CC[C@H]1C[C@H]2[C@H](O)c1ccnc2ccc(OC)cc12 [quinine, quinine monohydrochloride dihydrate, reference compound]
[1]; 6 ppm quinine alone (control), Example 2
  Panel Score (0-15), bitterness: 6.0
[1]; 6 ppm quinine alone (control), Example 3
  Panel Score (0-15), bitterness: 6.0

## OC[C@H]1O[C@@](CO)(O[C@H]2O[C@H](CO)[C@@H](O)[C@H](O)[C@H]2O)[C@@H](O)[C@@H]1O [sucrose, reference compound]
[3]; 6 ppm sucrose alone (control)
  Panel Score (0-15), sweetness: 7.0
